Source: patent US6340770B1, “Platinum (IV) complex used as anti-cancer agent and preparing method thereof” (Sook Myung Women's University, priority 1999, dated 2002)

Columns and labels:
L1210 cells [1] = assay: MTT assay, anti-cancer activity on L1210 cells in vitro; format: cell-based, mice; set-up: Cell Growth: unit not given here; conditions: for IC50: MTT, 48 hours, read-out: IC50 in L1210 Cell; for anti-cancer activity (IC50) compared with cisplatin, in words: L1210 cell; for Cell Growth: L1210, 48 hours
Procedure: (§1) In order to examine anti-cancer activity of Pt(IV) complexes according to the present invention, MTT, i.e., [3-(4,5-dimethylthiazol-2-yl)-2,5-diphenyltetrazolium bromide] assay was performed on HL60 and L1210 which are leukemic cell of human and mice, respectively.
(§2) MTT assay is a quantitative color analysis based on that mitochondrial dehydrogenase, one of cell enzymes, changes yellow water-soluble MTT into deep-blue water-insoluble formazan, and the amount of the generated formazan is proportioned to active cell numbers.^122-124)
(§3) HL60 and L1210, suspended leukemic cells of humans and mice, respectively are used as cancer cells for determining the anti-cancer activity of the Pt (IV) complex according to the above Examples. They were obtained by cultivating the frozen cells alloted from Korean Cell Line Bank.
(§4) Cells were subject to subculture at the interval of 2-3 days at 37° C. in the presence of 5% CO2 in RPMI 1640 culture medium controlled to contain 1% penicillin-streptomycin (10,000 unit/ml) and 10% FBS, with keeping the cell number between 2×10^5/ml-5×10^5/ml.
(§5) Pt (IV) complexes prepared by the Examples of the present invention were used as pharmaceutical compounds. Among them, a water-soluble compound was used as it was, and a water-insoluble compound was used after dissolving in DMSO or 95% ethanol, adding PBS to be 2 mM concentarion, filtering with 0.2μ syringe filter to be sterile state and performing serial-dilution with a culture medium to control predetermined concentrations. The final concentration of DMSO or 95% ethanol in cell culture medium was controlled to be below 0.1%.
HL60 and L1210 cells were put into 96-well plate in the amount of 10^4/well and then stabilized for a half hour at 37° C. in the presence of 5% CO2.
(§6) After cultivating HL60 cell at 37° C. in the presence of 5% CO2 for 72 hours and L1210 for 48 hours, MTT reagent (2 mg/ml) was added 50 μl/well, and an additional cultivation was performed at 37° C. in the presence of 5% CO2 for 4 hours. Then, after centrifuging the resultant at 2000 rpm for 5 minites, the supernatant was removed by 170 μl/well.
(§7) Then, after adding DMSO 150 μl/well, the resultant was laid at 40° C. for 30 minutes and stirred for 3 minutes. Then, absorption test using ELISA reader was performed at 570 nm.
(§8) For calibration, a blank test was performed on the same 96-well plate under the same condition.
(§9) The above-described experiment was performed on more than 3 wells under the same condition with different concentration, and the same experiment was repeated over 3 times.

HL60 cells = assay: MTT assay, anti-cancer activity on HL60 cells in vitro; format: cell-based, human; set-up: Cell Growth: unit not given here; conditions: for IC50: MTT, 72 hours, read-out: IC50 in HL60 Cell; for anti-cancer activity (IC50) compared with cisplatin, in words: HL60 cell; for Cell Growth: HL60, 72 hours
Procedure: as §1, §2, §3, §4, §5
HL60 and L1210 cells were put into 96-well plate in the amount of 10^4/well and then stabilized for a half hour at 37° C. in the presence of 5% CO2. […]
as §6, §7, §8, §9

male ICR mice = assay: Nephrotoxicity test, serologic analysis (BUN, creatinine, uric acid) after i.p. injection; format: in vivo; set-up: unit not given here; conditions: serum, dose 8x IC50 (cisplatin 7x IC50), average ± SD of 5-6 ICR mice
Procedure: In order to serologically analyze nephrotoxicity of various Pt complexes, after injecting each agent intraperitneally, blood was exsanguinated after 6 hours, 1 day, 3 days and 7 days, respectively. Then, serum was seperated f rom the blood to detect the values of BUN (Blood urea nitrogen), creatinine and uric acid.^133)
As an experimental animal, male ICR mice each weighing about 25 g were purchased from Korean Experimental Animal Center. The experimental animals were bred in SPF(Specific Pathogen Free) room in Medical School of HanYang University, and food (purchased from SamYang) and water were supplied unrestrictedly.
The experimental animals were divided into a normal control group, a control group and an experimental group, and the experimental group was again divided into a cisplatin dispensing group, a 7(Ac)Cl treated group, a 7(TF)Cl treated group, a 7(Ac)M treated group, a 7(TF)M treated group and a 7FMN treated group.
Each groups comprised 20-22 mice, and each group was again divided into a 6 hour-treating group, a 1 day-treating group, a 3 day-treating group and a 7 day-treating group, which contains 5-6 mice, respectively.
First, a predetermined amount of agent was dissolved in DMSO or ethanol, and then PBS was added thereto to make the total volume be 6.6 ml. At this time, the content of DMSO or ethanol was controlled to be below 5%.
The agent dissolved in PBS was filtered using 0.2μ syringe filter, sterilized, and injected into intraperitoneally. Then, after 6 hours, 1 day, 3 days and 7 days, exsanguination was performed.
After seperating serum by centrifuging the blood exsanguinated from mice at 4,500 rpm for 15 minutes, the serum was kept at the temperature −20° C. BUN (Blood urea nitrogen), creatinine and uric acid were detected using a biochemical automatic analyzing apparatus (Olympus reply, Japan) and average and standard deviation were calculated from the obtained data.
Control group was dissolved in PBS and injected in dose of 6.6 ml/Kg.

[2] = system: proximal renal tubule cells; assay: Nephrotoxicity test, electron microscopic findings (TEM) of proximal renal tubule; format: in vivo, mice
Procedure: In order to observe the ultra-structural changes of proximal renal tubule cells, a part of renal cortex of kidney was finely cut in the size of 1 mm^3, pre-fixed with 2% glutaraldehyde-2.5% paraformaldehyde solution, which is prepared with Millonig's phosphate buffer (pH 7.2) at 4° C. for 2-4 hours, and post-fixed with 1% osmium tetroxide for 2 hours, which is diluted with the same buffer solution. Then, after dehydrating the specimen according to ethanol-acetone concentration difference and embeding in Epon 812, it was made to be 2-5 μm thickness in thin section using ultramicrotome and temporarily stained with methylene blue to determine a proper site. Then, it was prepared tobe 60-80 nm thickness of the ultra-thin section, subject to double-staining with uranyl acetate and lead citrate, and observed with TEM (transmission electron microscope; Hitachi-600, Japan).

L1210 cells [3] = conditions: literature value (J. Med. Chem. 1994, vol.37, No.10, 1471-1485); cited from earlier work
[4] = 1 Day after single i.p. injection
[5] = 7 Day after single i.p. injection
[6] = 6 hour after single i.p. injection
[7] = 3 day after single i.p. injection

IC50 (L1210 cells [1]) [µM]	IC50 (HL60 cells) [µM]	SMILES	anti-cancer activity (IC50) compared with cisplatin, in words (L1210 cells [1])	anti-cancer activity (IC50) compared with cisplatin, in words (HL60 cells)	BUN after the 1st time injection (male ICR mice; [4])	Uric acid after the 1st time injection (male ICR mice; [4])	BUN after the 1st time injection (male ICR mice; [5])	Uric acid after the 1st time injection (male ICR mice; [5])	BUN after the 1st time injection (male ICR mice; [6])	Uric acid after the 1st time injection (male ICR mice; [6])	BUN after the 1st time injection (male ICR mice; [7])	Uric acid after the 1st time injection (male ICR mice; [7])	other results
19.3	16.1	[Cl][Pt]1([Cl])[NH]CCC[NH]1 [6 Cl, cis-dichloro-1,3-propanediamine Pt(II) complex]											
		[OH][Pt]1([OH])([Cl])([Cl])[NH]CCCC[NH]1 [7(OH)Cl, trans, cis-dihydroxo,dichloro-1,4-butanediamine Pt(IV) complex]	lower anti-cancer activity than that of cisplatin	lower anti-cancer activity than that of cisplatin									
		O=C1CC(=O)[O][Pt]2([OH])([OH])([NH]CCCC[NH]2)[O]1 [7(OH)M, trans-dihydroxo,malonato-1,4-butanediamine Pt(IV) complex]	lower anti-cancer activity than that of cisplatin	lower anti-cancer activity than that of cisplatin									
		CC(=O)[O][Pt]1([Cl])([Cl])([O]C(C)=O)[NH]CCCC[NH]1 [7(Ac)Cl, trans, cis-diacetato,dichloro-1,4-butanediamine Pt(IV) complex]	superior to cisplatin(CDDP)	superior to that of cisplatin	19.4 ± 3.3	1.92 ± 0.4	22.1 ± 3.4	1.74 ± 0.5	29.2 ± 1.8	2.18 ± 1.0	19.2 ± 2.8	1.88 ± 0.6	nephrotoxicity compared with cisplatin (conclusion from serologic and electron microscopic analysis) ([2]; 7(Ac)Cl 6 mg/kg, 7(TF)Cl 5.3 mg/kg (8 times of IC50), cisplatin 6 mg/kg (7 times of IC50), i.p.): weaker toxicity than cisplatin; ultra-structural changes of proximal renal tubule epithelial cells (TEM) ([2]; one day after i.p. injection): cytoplasmic organelle damages
		[NH2][Pt]1([NH2])[O]C(=O)C2(CCC2)C(=O)[O]1 [carboplatin, cis-diamine(1,1-cyclobutanedicarboxylato)platinum(II)]											IC50 relative to that of cisplatin (L1210 cells [3]): about 10 times
		O=C([O][Pt]1([Cl])([Cl])([O]C(=O)C(F)(F)F)[NH]CCCC[NH]1)C(F)(F)F [7(TF)Cl, trans, cis-ditriflioroacetato,dichloro-1,4-butanediamine Pt(IV) complex]	superior to cisplatin(CDDP)	superior to that of cisplatin	23.1 ± 3.3	1.82 ± 0.5	20.7 ± 3.5	1.88 ± 0.3	28.8 ± 6.4	2.2 ± 0.9	18.1 ± 2.3	2.22 ± 0.7	ultra-structural changes of proximal renal tubule epithelial cells (TEM) ([2]; sacrificed 6 hours after i.p. injection): seriously damaged findings; ultra-structural changes of proximal renal tubule epithelial cells (TEM) ([2]; sacrificed 3 days after i.p. injection): most of cytoplasmic organelles were damaged
15	13.8	O=C1CC(=O)[O][Pt]2([NH]CCCC[NH]2)[O]1 [7 Mal, malonato-1,4-butanediamine Pt(II) complex]											Cell Growth (L1210 cells [1]; 0.01 μM): 91; Cell Growth (L1210 cells [1]; 0.05 μM): 95; Cell Growth (L1210 cells [1]; 0.1 μM): 93; Cell Growth (L1210 cells [1]; 0.5 μM): 84.8; Cell Growth (L1210 cells [1]; 1 μM): 80.1; Cell Growth (L1210 cells [1]; 5 μM): 68; Cell Growth (L1210 cells [1]; 10 μM): 55; Cell Growth (L1210 cells [1]; 50 μM): 26.1; Cell Growth (L1210 cells [1]; 100 μM): 20.5; Cell Growth (HL60 cells; 0.01 μM): 92; Cell Growth (HL60 cells; 0.05 μM): 89; Cell Growth (HL60 cells; 0.1 μM): 89; Cell Growth (HL60 cells; 0.5 μM): 82.6; Cell Growth (HL60 cells; 1 μM): 78.8; Cell Growth (HL60 cells; 5 μM): 63.2; Cell Growth (HL60 cells; 10 μM): 57; Cell Growth (HL60 cells; 50 μM): 27; Cell Growth (HL60 cells; 100 μM): 20
		CC(=O)[O][Pt]12([O]C(C)=O)([NH]CCCC[NH]1)[O]C(=O)CC(=O)[O]2 [7(Ac)M, trans-diacetato,malonato-1,4-butanediamine Pt (IV) complex]		higher than that of cisplatin	22.0 ± 4.1	2.34 ± 1.0	21.5 ± 5.1	1.52 ± 0.3	24.0 ± 6.2	2.66 ± 0.7	22.4 ± 3.3	2.0 ± 1.5	
2.01	1.83	[Cl][Pt]1([Cl])[NH]CCCC[NH]1 [7 Cl, cis-dichloro-1,4-butanediamine Pt(II) complex]											
		O=C1CC(=O)[O][Pt]2([O]C(=O)C(F)(F)F)([O]C(=O)C(F)(F)F)([NH]CCCC[NH]2)[O]1 [7(TF)M, trans-ditrifluoroacetato,malonato-1,4-butanediamine Pt(IV) complex]		higher than that of cisplatin	23.1 ± 4.8	1.8 ± 0.4	22.3 ± 1.7	1.96 ± 0.3	22.1 ± 3.1	2.04 ± 0.3	22.9 ± 1.7	1.82 ± 0.4	

SMILES	IC50 (L1210 cells [1]) [µM]	IC50 (HL60 cells) [µM]	anti-cancer activity (IC50) compared with cisplatin, in words (L1210 cells [1])	anti-cancer activity (IC50) compared with cisplatin, in words (HL60 cells)	BUN after the 1st time injection (male ICR mice; [4])	Uric acid after the 1st time injection (male ICR mice; [4])	BUN after the 1st time injection (male ICR mice; [5])	Uric acid after the 1st time injection (male ICR mice; [5])	BUN after the 1st time injection (male ICR mice; [6])	Uric acid after the 1st time injection (male ICR mice; [6])	BUN after the 1st time injection (male ICR mice; [7])	Uric acid after the 1st time injection (male ICR mice; [7])	other results
NCCN.[Cl][Pt][Cl] [5 Cl, cis-dichloro,ethylenediamine Pt(II) complex]	11	11.7											
N.N.[Cl][Pt][Cl] [CDDP, cis-Diaminedichloroplatinum(II)]		2.74											
